Common to all, as to type: in vivo, mouse
Assay [1] relates to DIO mice. The assay can be described thus: Rectal temperature, oxygen consumption and motor activity, DIO mice. The procedure: (±)-baclofen was orally administered to db/db mice and DIO mice for 5 weeks and rectal temperatures were measured 5 weeks after the start of the administration, and oxygen consumptions and motor activity were measured by using a small animal metabolism measuring system (model MK-5000: Muromachi Kikai Co., Ltd.).

The test system of assay [2] is NPY mRNA. Description: In situ hybridization, NPY mRNA in hypothalamic arcuate nucleus, db/db mice. As to conditions: after 5 weeks, 1.1 and 2.7 mg/dl in drinking water, NIH image quantitation. The procedure: 5 week-old male C57BL/KsJ-db/db mice (db/db mice: body weight 19 to 25 g, Japan SLC, Inc.) were purchased and individually fed in tip cages. For the db/db mice, normal pellet diet (CE-2) was administered under free water intake and free food intake. A body weight and a food intake amount over 24 hours were measured every day from the start of feeding. On day 3 after the start of feeding, blood was taken from an orbit after 6 hour-fasting and a blood glucose level and a blood insulin concentration were measured. The db/db mice were divided into three groups (10 mice per each group) so that a body weight, a 24 hour-food intake amount, a blood glucose level, and a blood insulin concentration were equal, and defined to be a control group, a low concentration baclofen treated group, and a high concentration baclofen treated group. […] A food intake amount and a body weight were measured over time during the period of 5 week-administration of (±)-baclofen, blood was taken after the end of the 5-week administration, and the db/db mice were sacrificed by cervical luxation. […] The epididymal white adipose tissues and subcutaneous white adipose tissues were measured in weights, and then fixed in 4% formaldehyde and preserved at 4° C. […]

Assay [3] relates to NPY mRNA. Description: In situ hybridization, NPY mRNA in hypothalamic arcuate nucleus, DIO mice. The note with it: (±)-baclofen oral 5 weeks. The procedure:
A hypothalamic section with a thickness of 12 μm was prepared from the brain preserved at −80° C. by using a cryostat and stuck to a MAS coat slide and then in situ hybridization was performed. For a label of NPY mRNA and POMC mRNA probes, ^35S was used. The hypothalamic section was pretreated by using triethanolamine, ethanol and the like, and then 12 hour-hybridization was performed at 55° C. After the hybridization, the hypothalamic section was treated by washing with SSC, RNase, etc. After development to a film, the mRNA expression strength was assayed by using the NIH image.
(±)-baclofen was orally administered to DIO mice for 5 weeks according to the above method, and then the DIO mice were sacrificed. A brain was surgically removed, and changes in expression amounts of NPY mRNA and POMC mRNA in the hypothalamic arcuate nucleus were examined by using an in situ hybridization method.

The subject of assay [4] is DIO mice. Description: Food intake amount and body weight, 5 week-continuous oral administration, diet-induced obese (DIO) mice. The note with it: (±)-baclofen 5 mg/kg/day, SKF97541 0.3 mg/kg/day, 3-APPA 5 mg/kg/day. The procedure:
5 week-old male C57BL/6N mice (body weight 17 to 20 g, CLEA Japan, Inc.) were purchased and individually fed in tip cages. To the mice, normal pellet diet (CE-2) was administered under free water intake and free food intake. A body weight and a food intake amount over 24 hours were measured every day from the start of feeding. On day 3 after the start of feeding, blood was taken from an orbit after 6 hour-fasting and a blood glucose level and a blood insulin concentration were measured. The mice were divided into a control group and a baclofen treated group (10 mice per each group) so that a body weight, a 24 hour-food intake amount, a blood glucose level, and a blood insulin concentration were equal, and diet induced-obesity (DIO) was started to be induced by administration of high fat diet (High Fat Diet 32, energy fat ratio 60%, CLEA Japan, Inc.) (DIO mice). At the same time as the start of administering the high fat diet, (±)-baclofen was dissolved in drinking water and 5 week-continuous oral administration was started in a dosage of 5 mg per 1 kg of a body weight in 1 day (5 mg/kg/day). A food intake amount and a body weight were measured over time during the 5 week-administration period. (±)-baclofen (5 mg/kg/day) was orally administered also to C57BL/6N mice (lean mice) that are non-obese mice to which normal diet was administered in the same manner as described above, and a food intake amount and a body weight were measured over time.
5 week-old male C57BL/6N mice (body weight 17 to 20 g, CLEA Japan, Inc.) were purchased and individually fed in tip cages. Normal pellet diet (CE-2) was administered to the mice under free water intake and free food intake. A body weight and a food intake amount over 24 hours were measured every day from the start of feeding. On day 3 after the start of feeding, blood was taken from an orbit after 6 hour-fasting and a blood glucose level and a blood insulin concentration were measured. The mice were divided into a control group, an SKF97541 treated group and a 3-APPA treated group (10 mice per each group) so that a body weight, a 24 hour-food intake amount, a blood glucose level, and a blood insulin concentration were equal, and diet induced-obesity (DIO) was started to be induced by administration of high fat diet (High Fat Diet 32, energy fat ratio 60%, CLEA Japan, Inc.) (DIO mice). At the same time as the start of administering the high fat diet, SKF97541 (0.3 mg/kg/day) or 3-APPA (5 mg/kg/day) was dissolved in drinking water and 5 week-continuous oral administration was started. A food intake amount and a body weight were measured over time during the 5 week-administration period. SKF97541 (0.3 mg/kg/day) or 3-APPA (5 mg/kg/day) was orally administered also to C57BL/6N mice (lean mice) to which normal diet was administered in the same manner as described above, and a food intake amount and a body weight were measured over time.

A further assay deals with UCP1 mRNA. The assay can be described thus: Real time PCR, UCP1 mRNA in brown adipose tissues, db/db mice. The note with it: after 5 week-administration, 1.1 and 2.7 mg/dl in drinking water. The procedure: 5 week-old male C57BL/KsJ-db/db mice (db/db mice: body weight 19 to 25 g, Japan SLC, Inc.) were purchased and individually fed in tip cages. For the db/db mice, normal pellet diet (CE-2) was administered under free water intake and free food intake. A body weight and a food intake amount over 24 hours were measured every day from the start of feeding. On day 3 after the start of feeding, blood was taken from an orbit after 6 hour-fasting and a blood glucose level and a blood insulin concentration were measured. […] A food intake amount and a body weight were measured over time during the period of 5 week-administration of (±)-baclofen, blood was taken after the end of the 5-week administration, and the db/db mice were sacrificed by cervical luxation. […] The epididymal white adipose tissues and subcutaneous white adipose tissues were measured in weights, and then fixed in 4% formaldehyde and preserved at 4° C.
RNA was taken out from the brown adipose tissues preserved at −80° C., and expression of a UCP-1 mRNA was examined in the real time quantitative […] method by using ABI PRISM (registered trademark) 7700 Sequence Detection System.
In general terms: In qPCR the cycle at which signal appears reflects the starting amount.

The mark [5] stands for this setting: DIO mice (high fat diet), oral in drinking water 5 weeks.
[6] abbreviates: DIO mice, continued until 5 weeks.

In the case of `NCC(CC(=O)O)c1ccc(Cl)cc1` (racemic) [(±)-baclofen, (RS)-4-amino-3-(4-chlorophenyl)butanoic acid], the oxygen consumption entry in the assay on DIO mice [1] ((±)-baclofen oral 5 weeks) is on record as “significantly increased”. In addition, the “body temperature (rectal)” value in the assay on DIO mice [1] ((±)-baclofen oral, 5 weeks after start of administration) is “significantly raised”. In the assay on NPY mRNA [2], the “expression of NPY mRNA in the hypothalamic arcuate nucleus” value is “significantly suppressed”. Moreover, the “expression of NPY mRNA in the hypothalamic arcuate nucleus” value in the assay on NPY mRNA [3] is “significantly suppressed”. Further, in the assay on DIO mice [4] (setting [5]), the body weight increase result was “significantly suppressed” and the food intake amount result is “significantly suppressed”. In the assay with DIO mice [4] (setting [6]), the “time after start of administration from which body weight increase suppression was significant” value is 1 week and the “time after start of administration from which food intake suppression was significant” value is 1 week. Besides, the “UCP1 mRNA expression in brown adipose tissues” value in the assay with UCP1 mRNA is “Significant increases”.
